Source: DBAASP
In brackets after ≈: the same amount, converted by molar mass. Several values for one entry are separate records, joined by “and”; a condition that tells them apart may be missing. Equal values may be shown once. Each block holds one molecule with its values, some of them ahead of it.

Legend:
Assay in all cases: ≥ marks a high value that may be exact or a test limit, other limits are often not marked, values filed in µg/mL are converted to µM
[1] = tested on: Staphylococcus epidermidis
[2] = tested on: Leuconostoc lactis
[3] = tested on: Streptococcus uberis
[4] = tested on: Micrococcus luteus
[5] = tested on: Escherichia coli
[6] = tested on: Listeria innocua
[7] = tested on: Pasteurella multocida
[8] = tested on: Bacillus cereus
[9] = tested on: Staphylococcus aureus
[10] = tested on: Pseudomonas aeruginosa PAO1
[11] = tested on: Klebsiella aerogenes
[12] = tested on: Escherichia coli IFO 12734
[13] = tested on: Bacillus subtilis IFO 3513
[14] = tested on: Staphylococcus aureus IFO 12732
[15] = tested on: Micrococcus luteus ATCC 9341
[16] = tested on: Pseudomonas aeruginosa ATCC 27853
[17] = tested on: Staphylococcus aureus MR
[18] = tested on: Candida albicans
[19] = tested on: Staphylococcus aureus ATCC 49476
[20] = tested on: Staphylococcus aureus ST1065
[21] = tested on: Acinetobacter baumannii ATCC 19606
[22] = tested on: Staphylococcus aureus ATCC BAA-44
[23] = tested on: Streptococcus pyogenes ATCC 19615
[24] = tested on: Escherichia coli ML-35p
[25] = tested on: Enterococcus faecalis ATCC 29212
[26] = tested on: Saccharomyces cerevisiae
[27] = tested on: Candida parapsilosis ATCC 22019
[28] = tested on: Klebsiella pneumoniae ATCC 13883
[29] = tested on: Staphylococcus aureus ATCC 43300
[30] = tested on: Escherichia coli ATCC 25922
[31] = tested on: Staphylococcus aureus ATCC 25923
[32] = tested on: Candida albicans NCPF 1467
[33] = tested on: Staphylococcus aureus NCTC 10788
[34] = tested on: Escherichia coli NCTC 10418

SMILES: CC(C)C[C@H](NC(=O)[C@H](CCCCN)NC(=O)[C@H](CCCCN)NC(=O)[C@H](Cc1ccccc1)NC(=O)[C@H](Cc1ccccc1)NC(=O)[C@H](CCCCN)NC(=O)[C@H](CCCCN)NC(=O)[C@H](Cc1ccccc1)NC(=O)[C@H](CCCN=C(N)N)NC(=O)[C@@H](N)CCCCN)C(=O)N[C@@H](CCCCN)C(=O)N[C@@H](CC(N)=O)C(=O)N[C@@H](CO)C(=O)N[C@H](C(=O)N[C@@H](CCCCN)C(=O)N[C@@H](CCCCN)C(=O)N[C@@H](CCCN=C(N)N)C(=O)N[C@@H](C)C(=O)N[C@@H](CCCCN)C(=O)N[C@@H](CCCCN)C(=O)N[C@@H](Cc1ccccc1)C(=O)N[C@@H](Cc1ccccc1)C(=O)N[C@@H](CCCCN)C(=O)N[C@@H](CCCCN)C(=O)O)C(C)C [KRFKKFFKKLKNSVKKRAKKFFKK]
- MIC [10]: 7.77 µM and 3.56 µM
- MIC [11]: 7.77 µM and 3.88 µM

SMILES: CC[C@H](C)[C@H](N)C(=O)N[C@@H](CC(C)C)C(=O)N1CCC[C@H]1C(=O)N[C@@H](CC(C)C)C(=O)N[C@@H](CCCCN)C(=O)N[C@@H](CC(C)C)C(=O)N1CCC[C@H]1C(=O)N[C@@H](CC(C)C)C(=O)N[C@@H](CC(C)C)C(=O)N1CCC[C@H]1C(=O)N[C@@H](CC(C)C)C(=O)N[C@@H](CCCN=C(N)N)C(=O)N[C@@H](CCCN=C(N)N)C(N)=O [ILPLKLPLLPLRR]
- MIC [12]: 16.2 µM (≈ 25 µg/mL)
- MIC [13]: 4.05 µM (≈ 6.25 µg/mL)
- MIC [14]: 2.03 µM (≈ 3.13 µg/mL)
- MIC [15]: 25 µM (≈ 38.5 µg/mL)

SMILES: CC[C@H](C)[C@H](NC(=O)[C@H](Cc1cnc[nH]1)NC(=O)[C@H](CCCCN)NC(=O)CNC(=O)[C@@H](NC(=O)[C@H](CO)NC(=O)[C@H](Cc1ccccc1)NC(=O)[C@H](CC(C)C)NC(=O)CNC(=O)CNC(=O)[C@@H](NC(=O)[C@@H](NC(=O)[C@H](Cc1cnc[nH]1)NC(=O)[C@H](Cc1cnc[nH]1)NC(=O)[C@@H](NC(=O)[C@@H](N)Cc1ccccc1)[C@@H](C)CC)[C@@H](C)CC)[C@@H](C)CC)C(C)C)C(=O)N[C@@H](Cc1cnc[nH]1)C(=O)N[C@@H](CO)C(=O)N[C@@H](CC(C)C)C(=O)N[C@H](C(=O)N[C@@H](Cc1cnc[nH]1)C(=O)N[C@@H](CCCN=C(N)N)C(=O)N[C@@H](CCCN=C(N)N)C(=O)N[C@@H](CCCN=C(N)N)C(=O)N[C@@H](CCCN=C(N)N)C(=O)O)[C@@H](C)CC [FIHHIIGGLFSVGKHIHSLIHRRRR]
- MIC [16]: > 171 µM
- MIC [17]: 5.36 µM (≈ 16 µg/mL)
- MIC [18]: 42.8 µM (≈ 128 µg/mL)
- MIC [19]: 5.36 µM (≈ 16 µg/mL)

SMILES: CC[C@H](C)[C@H](NC(=O)[C@H](CC(C)C)NC(=O)[C@@H]1CCCN1C(=O)[C@H](Cc1c[nH]c2ccccc12)NC(=O)[C@H](CCCCN)NC(=O)[C@H](CCCCN)NC(=O)[C@@H]1CCCN1C(=O)[C@H](CCCCN)NC(=O)[C@H](CC(C)C)NC(=O)[C@@H]1CCCN1C(=O)[C@H](Cc1c[nH]c2ccccc12)NC(=O)[C@H](CCCN=C(N)N)NC(=O)[C@@H](N)CCCN=C(N)N)C(N)=O [RRWPLKPKKWPLI]
- MIC [12]: 29.1 µM (≈ 50 µg/mL)
- MIC [13]: 7.28 µM (≈ 12.5 µg/mL)
- MIC [14]: 7.28 µM (≈ 12.5 µg/mL)

SMILES: CC[C@H](C)[C@H](NC(=O)[C@H](C)NC(=O)[C@H](CC(C)C)NC(=O)[C@H](CO)NC(=O)[C@H](C)NC(=O)[C@@H](NC(=O)CNC(=O)[C@H](CO)NC(=O)[C@@H](NC(=O)[C@@H](NC(=O)[C@H](Cc1cnc[nH]1)NC(=O)[C@@H]1CCCN1C(=O)[C@@H](NC(=O)[C@H](CC(C)C)NC(=O)[C@H](CO)NC(=O)[C@H](CC(C)C)NC(=O)[C@@H](N)Cc1ccccc1)[C@@H](C)CC)[C@@H](C)CC)C(C)C)C(C)C)C(=O)N[C@@H](Cc1cnc[nH]1)C(=O)N[C@@H](Cc1ccccc1)C(N)=O [FLSLIPHIVSGVASLAIHF]
- MIC [20]: ≥ 200 µM
- MIC [21]: > 200 µM
- MIC [16]: > 200 µM
- MIC [22]: ≥ 200 µM
- MIC [23]: 12.5 µM (≈ 25.3 µg/mL)
- MIC [24]: ≥ 200 µM
- MIC [25]: > 200 µM
- MIC [26]: ≥ 200 µM
- MIC [27]: ≥ 200 µM
- MIC [28]: ≥ 200 µM
- MIC [29]: > 200 µM
- MIC [30]: > 200 µM
- MIC [31]: > 200 µM

Next, values leading:

- MIC [1]: ≥ 69.6 µM
- MIC [2]: 17.4 µM (≈ 25 µg/mL)
- MIC [3]: ≥ 69.6 µM
- MIC [4]: ≥ 69.6 µM
- MIC [5]: > 69.6 µM
- MIC [6]: ≥ 69.6 µM
- MIC [7]: ≥ 69.6 µM
- MIC [8]: ≥ 69.6 µM
- MIC [9]: 69.6 µM (≈ 99.9 µg/mL)
SMILES: CC[C@H](C)[C@H](NC(=O)[C@H](CC(N)=O)NC(=O)[C@H](CCCCN)NC(=O)[C@@H](NC(=O)[C@@H](NC(=O)[C@H](CC(=O)O)NC(=O)[C@H](Cc1ccccc1)NC(=O)[C@H](CC(C)C)NC(=O)CN)[C@@H](C)CC)[C@@H](C)CC)C(=O)N[C@@H](Cc1ccccc1)C(=O)N[C@@H](CO)C(=O)NCC(=O)N[C@@H](CC(C)C)C(N)=O [GLFDIIKNIFSGL]

- MIC [1]: 15.3 µM (≈ 25 µg/mL)
- MIC [2]: 7.36 µM (≈ 12 µg/mL)
- MIC [3]: 15.3 µM (≈ 25 µg/mL)
- MIC [4]: 15.3 µM (≈ 25 µg/mL)
- MIC [5]: > 61.4 µM
- MIC [6]: ≥ 61.4 µM
- MIC [7]: ≥ 61.4 µM
- MIC [8]: 15.3 µM (≈ 25 µg/mL)
- MIC [9]: 15.3 µM (≈ 25 µg/mL)
SMILES: CC[C@H](C)[C@H](NC(=O)[C@H](CC(=O)O)NC(=O)[C@H](Cc1ccccc1)NC(=O)[C@H](CC(C)C)NC(=O)CN)C(=O)N[C@H](C(=O)N[C@@H](CCCCN)C(=O)N[C@@H](CCCCN)C(=O)N[C@H](C(=O)N[C@H](C(=O)NCC(=O)N[C@H](C(=O)N[C@H](C(=O)N[C@@H](C)C(=O)NCC(=O)N[C@@H](CC(C)C)C(N)=O)[C@@H](C)CC)[C@@H](C)O)C(C)C)C(C)C)C(C)C [GLFDIVKKVVGTIAGL]

- MIC [20]: 6.25 µM (≈ 12.7 µg/mL)
- MIC [21]: 6.25 µM (≈ 12.7 µg/mL)
- MIC [16]: > 100 µM
- MIC [32]: ≥ 100 µM
- MIC [22]: 6.25 µM (≈ 12.7 µg/mL)
- MIC [23]: 3.12 µM (≈ 6.35 µg/mL)
- MIC [33]: 5 µM (≈ 10.2 µg/mL)
- MIC [24]: ≥ 100 µM
- MIC [25]: 25 µM (≈ 50.9 µg/mL)
- MIC [34]: ≥ 80 µM
- MIC [26]: 12.5 µM (≈ 25.4 µg/mL)
- MIC [27]: ≥ 100 µM
- MIC [28]: ≥ 100 µM
- MIC [29]: 6.25 µM (≈ 12.7 µg/mL)
- MIC [30]: 70 µM (≈ 142 µg/mL)
- MIC [31]: 6.25 µM (≈ 12.7 µg/mL)
SMILES: CC[C@H](C)[C@H](NC(=O)[C@H](CO)NC(=O)[C@H](C)NC(=O)[C@@H](NC(=O)CNC(=O)[C@H](CO)NC(=O)[C@@H](NC(=O)[C@@H](NC(=O)[C@H](Cc1cnc[nH]1)NC(=O)[C@@H]1CCCN1C(=O)[C@@H](NC(=O)[C@H](CC(C)C)NC(=O)[C@H](CO)NC(=O)[C@H](CC(C)C)NC(=O)[C@@H](N)Cc1ccccc1)[C@@H](C)CC)[C@@H](C)CC)C(C)C)C(C)C)C(=O)N[C@@H](C)C(=O)N[C@@H](CCCCN)C(=O)N[C@@H](Cc1cnc[nH]1)C(=O)N[C@@H](Cc1ccccc1)C(N)=O [FLSLIPHIVSGVASIAKHF]
